Here are results for 13 compounds from publication PMC11112591 (ACS Omega, 2024).

A short description of series [1]: Parallel artificial membrane permeability assay. To be noted: PAMPA, PAMPA effective permeability, donor pH 6.5, acceptor pH 7.5, 5 h, 37 °C. Format: in vitro ADME. On the technique in general: In PAMPA a lipid-coated filter parts donor from acceptor wells.
The target in series [2] is CYP51 (Trypanosoma cruzi, UniProt Q7Z1V1). The series is described as follows: CYP51 inhibition of initial hits. Format: biochemical. To be noted: initial hit data, Figure 1.
Series [3] is described as follows: Mouse liver microsome intrinsic clearance. Format: in vitro ADME. The following applies: liver microsomes, pH 7.4.

Usually Papp stands for a coefficient for how fast a substance crosses the barrier. Broadly, the microsomal CLint is the rate of metabolic loss divided by the concentration. A lower microsomal CLint goes with greater metabolic stability.

Sequence of CYP51 (Q7Z1V1 whole entry): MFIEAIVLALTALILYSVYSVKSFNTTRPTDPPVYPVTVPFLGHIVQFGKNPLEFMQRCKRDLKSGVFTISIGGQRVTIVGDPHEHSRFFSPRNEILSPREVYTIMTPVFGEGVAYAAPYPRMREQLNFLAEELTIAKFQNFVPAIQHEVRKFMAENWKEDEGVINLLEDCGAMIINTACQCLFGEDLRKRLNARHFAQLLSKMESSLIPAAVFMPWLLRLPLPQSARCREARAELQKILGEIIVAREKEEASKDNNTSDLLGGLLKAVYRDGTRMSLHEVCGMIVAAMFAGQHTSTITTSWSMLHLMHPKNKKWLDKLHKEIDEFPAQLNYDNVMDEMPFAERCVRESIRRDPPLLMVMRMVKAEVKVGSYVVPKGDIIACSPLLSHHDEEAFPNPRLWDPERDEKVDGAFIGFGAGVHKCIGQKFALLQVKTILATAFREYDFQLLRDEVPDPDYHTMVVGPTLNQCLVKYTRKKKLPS

With `Cc1cc(C)c(C#N)c(SCC(=O)c2cccs2)n1` [Compound 1, c1(SCC(=O)c2cccs2)nc(C)cc(C)c1C#N], in series [1], the Papp at 5 h, 1 µM amounted to 25.4 ×10⁻⁶ cm/s. The “CYP51 IC50” value in series [2] was “no clear CYP51 inhibition”. Besides, the microsomal CLint at 0.5 µM in series [3] amounted to 3480 µL/min/mg.
For `Cc1cc(C)c(C#N)c(SCC(=O)c2ccccc2)n1` [Compound 2, c1c(C)c(C#N)c(SCC(=O)c2ccccc2)nc1C], in series [1], the Papp at 5 h, 1 µM is 20.4 ×10⁻⁶ cm/s. This compound displayed an intrinsic clearance (microsomal CLint) at 0.5 µM in series [3] of 1560 µL/min/mg.
As to `Cc1cc(C)c(C#N)c(SCC(=O)c2ccsc2)n1` [Compound 3, S(c1nc(C)cc(C)c1C#N)CC(=O)c2cscc2], the Papp at 5 h, 1 µM in series [1] was determined as 23.3 ×10⁻⁶ cm/s. Moreover, the microsomal CLint at 0.5 µM in series [3] came to 1320 µL/min/mg.
Take `CCc1ccc(C(=O)CSc2nc(C)cc(C)c2C#N)cc1` [Compound 5, S(c1nc(C)cc(C)c1C#N)CC(=O)c2ccc(CC)cc2]: the apparent permeability (Papp) at 5 h, 1 µM in series [1] stood at 1 ×10⁻⁶ cm/s. Also, the microsomal CLint at 0.5 µM in series [3] was 8860 µL/min/mg.
As to `Cc1cc(C)c(C#N)c(SCC(=O)c2ccc(F)cc2)n1` [Compound 6, S(c1nc(C)cc(C)c1C#N)CC(=O)c2ccc(F)cc2], the Papp at 5 h, 1 µM in series [1] came to 8 ×10⁻⁶ cm/s.
`Cc1cc(C)c(C#N)c(SCC(=O)c2ccc(F)cc2F)n1` [Compound 7, O=C(CSc1nc(C)cc(C)c1C#N)c2ccc(F)cc2F] yielded a Papp at 5 h, 1 µM in series [1] of 7.5 ×10⁻⁶ cm/s. In series [3], the microsomal CLint at 0.5 µM turned out to be 4040 µL/min/mg.
Taken in the same sequence, the figures for `Cc1cc(C)c(C#N)c(SCC(=O)c2ccc(Cl)cc2)n1` [Compound 8, Cc1c(C#N)c(SCC(=O)c2ccc(Cl)cc2)nc(C)c1] were 4.3 ×10⁻⁶ cm/s and 8880 µL/min/mg.
Regarding `Cc1cc(C)c(C#N)c(SCC(=O)c2ccc(Cl)cc2Cl)n1` [Compound 9, Clc1cc(ccc1C(CSc2c(C#N)c(C)cc(C)n2)=O)Cl], the Papp at 5 h, 1 µM in series [1] came out at 1.7 ×10⁻⁶ cm/s. Also, in series [3], the microsomal CLint at 0.5 µM was 35300 µL/min/mg.
`COc1ccccc1C(=O)CSc1nc(C)cc(C)c1C#N` [Compound 10, S(c1nc(C)cc(C)c1C#N)CC(=O)c2ccccc2OC] showed a Papp at 5 h, 1 µM in series [1] of 9.3 ×10⁻⁶ cm/s. Further, the microsomal CLint at 0.5 µM in series [3] stood at 9670 µL/min/mg.
As to `COc1ccc(C(=O)CSc2nc(C)cc(C)c2C#N)cc1` [Compound 11, S(c1nc(C)cc(C)c1C#N)CC(=O)c2ccc(OC)cc2], in series [1], the Papp at 5 h, 1 µM stood at 24.6 ×10⁻⁶ cm/s. Further, the microsomal CLint at 0.5 µM in series [3] stood at 4300 µL/min/mg.
In turn, `Cc1cc(C)c(C#N)c(SCC(=O)N2CCOCC2)n1` [Compound 16, Cc1c(C#N)c(SCC(=O)N2CCOCC2)nc(C)c1] had a Papp at 5 h, 1 µM in series [1] of 11.7 ×10⁻⁶ cm/s. The same compound displayed a microsomal CLint at 0.5 µM in series [3] of 73.9 µL/min/mg.
In series [1], `Cc1cc(C)c(C#N)c(OCC(=O)c2ccccc2)n1` [Compound 23, O(c1nc(C)cc(C)c1C#N)CC(=O)c2ccccc2] displayed a Papp at 5 h, 1 µM of 31.1 ×10⁻⁶ cm/s. In series [3], this compound gave a microsomal CLint at 0.5 µM of 3240 µL/min/mg.
In series [1], `Cc1cc(C)c(C(N)=O)c(SCC(=O)c2ccc(F)cc2)n1` [Compound 38, O=C(CSc1nc(C)cc(C)c1C(=O)N)c2ccc(F)cc2] registered a Papp at 5 h, 1 µM of 17.5 ×10⁻⁶ cm/s. Also, in series [3], the microsomal CLint at 0.5 µM was determined as 892 µL/min/mg.
